Here are results for 3 compounds from patent US11377659B2, “Short hairpin RNA (shRNA734) and use of same to positively select and eliminate genetically modified cells” (THE REGENTS OF THE UNIVERSITY OF CALIFORNIA, priority 2016, dated 2022).

For data set [1], the system named is hypoxanthine guanine phosphoribosyltransferase (HPRT). The data set can be described thus: HPRT knockdown in vector transduced cells (Western blot). The format is cell-based, human. As to conditions: lentiviral vector transduced cells. The procedure:
FIG. 6. HPRT knockdown in vector transduced cells. Whole cell lysates were analyzed by Western blot after transduction at the indicated time points.
(§1) The shRNA vector and control vector transduced cells were cultured with or without 6TG. […] Whole cell lysates were analyzed by Western blot after transduction at the indicated time points.

For data set [2], the system named is human T-cell line, CD34+ cells and primary peripheral blood mononuclear cells (PBMC). The data set can be described thus: 6TG-mediated positive selection of lentiviral vector-transduced cells in vitro. The conditions noted are these: cultured in the presence of 6TG. The data set is classed as cell-based. The procedure: FIG. 4. Lentiviral vector delivery of HPRT shRNA results in efficient selections of HPRT knockdown by 6TG. Selection of HPRT knockdown Molt4-CCR5, PBMC and CD34+ cell by 6TG. The shRNA vector and control vector transduced cells were cultured with or without 6TG.
The potent and non-toxic HPRT shRNA enables 6TG-mediated positive selection of lentiviral vector-transduced human T-cell line, CD34+ cells and primary peripheral blood mononuclear cells (PBMC) in vitro. A lentivirus vector was utilized to deliver sh734 and to stably knockdown HPRT in human T cell lines, primary peripheral blood mononuclear cells and CD34+ hematopoietic stem/progenitor cells.
Furthermore, the invention provides a combinatorial anti-HIV lentiviral vector expressing the HIV fusion inhibitor C46, and shRNAs for CCR5 and HPRT. […] Methotrexate (MTX) has been used to negatively select the transduced cells.
as §1

For data set [3] the following is noted: humans, estimated; cited from earlier work.
The subject of data set [4] is Molt4CCR5, PBMC and CD34+ cells. The data set can be described thus: MTX mediated negative selection of HPRT knock down cells. The data set is classed as cell-based, human. The conditions noted are these: in vitro, 10 μM MTX; % EGFP monitored. An excerpt:
FIG. 8. Line graphs showing MTX mediated inhibition of Dihydrofolate reductase (DHFR) induced cell death in HPRT knock down cells.
Negative selection of HPRT knock down cells by MTX is illustrated in FIG. 7, which presents a schematic illustration of MTX mediated inhibition of Dihydrofolate reductase (DHFR) induced cell death in HPRT knock down cells. […] The de novo synthesis occurs through a multi-step process and requires the contribution of four aminoacids, one PRPP, two folates and three ATP to synthesize an inosine monophosphate (IMP) molecule. HPRT catalyzes the salvage synthesis of inosine monophosphate (IMP) and guanosine monophosphate (GMP) from the purine bases hypoxanthine and guanine respectively, utilizing PRPP as a co-substrate. The HPRT defect results in the accumulation of its substrates, hypoxanthine and guanine, which are converted into uric acid by means of xanthine oxidase. Elevated APRT activity may also contribute to purine overproduction.
Molt4CCR5 (A), PBMC (B) and CD34+ (C) cells were transduced with dual shRNA vector. The transduced cells were cultured with or without 10 μM MTX. Cells were monitored for % EGFP and given fresh media containing MTX every 3 days.

Consider “sh734: short hairpin RNA directed to human HPRT, coding sequence SEQ ID NO: 1 (DNA AGGATATGCCCTTGACTATTTGTCCGACATAGTCAAGGGCATATCCT; expressed or natural sequence)”, for which, in data set [1], the HPRT knockdown entry is reported as “efficient HPRT knockdown”. Besides, the “positive selection of vector transduced cells by 6TG” value in data set [2] was “positively selected”.
Consider `Nc1nc2nc[nH]c2c(=S)[nH]1` [6TG, 6-thioguanine], for which, in data set [3], the “Absorption after oral administration” value is given as 30%.
In the case of `CN(Cc1cnc2nc(N)nc(N)c2n1)c1ccc(C(=O)N[C@@H](CCC(=O)O)C(=O)O)cc1` [MTX, methotrexate], the “negative selection of HPRT knock down cells by MTX” value in data set [4] is recorded as “negatively selected”.
